Converted amounts (≈) assume the structure as drawn. Like-named read-outs stand apart in the source and are kept apart here.
What was measured:
Assay in all cases: minimum inhibition concentration (MIC)
Format in all cases: cell-based
E. coli NIHJ = settings: Escherichia coli
Excerpt: (§1) Regarding the antimicrobial activity of the tylosin derivatives of this invention shown by formula I, the minimum inhibition concentration (MIC) is shown in Table I.

Sh. dysenteriae JS 11910 = settings: Shigella dysenteriae, JS11910
Excerpt: as §1

Staph. aureus 209 P = settings: Staphylococcus aureus
Excerpt: as §1

Ataph. aureus MS 9861 = test system: Ataph. aureus MS 9861
Excerpt: as §1

Kleb. pneumoniae PCI 602 = settings: Klebsiella pneumoniae, PCI602
Excerpt: as §1

Staph. aureus MS 10225 = settings: Staphylococcus aureus, MS10225
Excerpt: as §1

Sal. enteritidis 1891 = settings: Salmonella enterica
Excerpt: as §1

B. subtilis NRRL B-558 = settings: Bacillus subtilis, NRRLB558
Excerpt: as §1

[1] = Kleb. pneumoniae PCI 602, read-out: MIC
[2] = Sal. enteritidis 1891, read-out: MIC
[3] = B. subtilis NRRL B-558, read-out: MIC
[4] = Staph. aureus 209 P, read-out: MIC

Row | Compound | MIC (E. coli NIHJ) [µg/mL] | MIC (Sh. dysenteriae JS 11910) [µg/mL] | MIC (Staph. aureus 209 P; 209P) [µg/mL] | MIC (Ataph. aureus MS 9861) [µg/mL] | MIC (Kleb. pneumoniae PCI 602; [1]) [µg/mL] | MIC (Staph. aureus MS 10225) [µg/mL] | MIC (Sal. enteritidis 1891; [2]) [µg/mL] | MIC (B. subtilis NRRL B-558; [3]) [µg/mL] | MIC (Sal. enteritidis 1891; ENTERITIDIS) [µg/mL] | MIC (B. subtilis NRRL B-558) [µg/mL] | MIC (E. coli NIHJ; E. coli NIHJ, read-out: MIC) [µg/mL] | MIC (Staph. aureus 209 P; [4]) [µg/mL] | MIC (Kleb. pneumoniae PCI 602) [µg/mL]
1 | CCC1OC(=O)CC(O)C(C)C(OC2OC(C)CC(N(C)C)C2O)C(CC=O)CC(C)C(=O)C=CC(C)=CC1CO (centres unmarked) [Example 2, 4'-deoxy mycaminosyl tylonolide] | 3.12 (≈ 5.36 µM) | < 0.2 | 0.2 (≈ 0.344 µM) | 3.12 (≈ 5.36 µM) | 0.78 (≈ 1.34 µM) | 3.12 (≈ 5.36 µM) | 0.78 (≈ 1.34 µM) | 0.78 (≈ 1.34 µM) |  |  |  |  | 
2 | CCC1OC(=O)CC(O)C(C)C(OC2OC(C)CC(N(C)C)C2O)C(CC=O)CC(C)C(=O)C=CC(C)=CC1COC(C)=O (centres unmarked) [Example 9, 23-O-acetyl-4'-deoxy mycaminosyl tylonolide] | 6.25 (≈ 10 µM) | 0.78 (≈ 1.25 µM) | 0.2 (≈ 0.321 µM) | 1.56 (≈ 2.5 µM) | 6.25 (≈ 10 µM) | 0.78 (≈ 1.25 µM) |  |  | 1.56 (≈ 2.5 µM) | 0.39 (≈ 0.625 µM) |  |  | 
3 | CCC(=O)OCC1C=C(C)C=CC(=O)C(C)CC(CC=O)C(OC2OC(C)CC(N(C)C)C2O)C(C)C(O)CC(=O)OC1CC (centres unmarked) [Example 10, 23-O-propionyl-4'-deoxy mycaminosyl tylonolide] |  | 0.2 (≈ 0.314 µM) |  | 3.12 (≈ 4.89 µM) |  | 0.2 (≈ 0.314 µM) | 0.78 (≈ 1.22 µM) |  |  | < 0.2 | 6.25 (≈ 9.8 µM) | 0.2 (≈ 0.314 µM) | 1.56 (≈ 2.45 µM)
4 | CCC1OC(=O)CC(O)C(C)C(OC2OC(C)CC(N(C)C)C2O)C(CC=O)CC(C)C(=O)C=CC(C)=CC1COC1CCCS1 (centres unmarked) [Example 18, 23-O-tetrahydrothiofuranyl-4'-deoxy mycaminosyl tylonolide] |  | 0.39 (≈ 0.584 µM) |  | 0.2 (≈ 0.299 µM) | 1.56 (≈ 2.34 µM) | 0.2 (≈ 0.299 µM) | 1.56 (≈ 2.34 µM) |  |  | < 0.2 | 6.25 (≈ 9.36 µM) | < 0.2 | 
5 | CCC1OC(=O)CC(O)C(C)C(OC2OC(C)CC(N(C)C)C2O)C(CC=O)CC(C)C(=O)C=CC(C)=CC1COC1CCCCS1 (centres unmarked) [Example 19, 23-O-tetrahydrothiopyranyl-4'-deoxy mycaminosyl tylonolide] |  | 0.39 (≈ 0.572 µM) |  | < 0.2 |  | < 0.2 | 1.56 (≈ 2.29 µM) |  |  | < 0.2 | 25 (≈ 36.7 µM) | < 0.2 | 3.12 (≈ 4.58 µM)
6 | CCC1OC(=O)CC(O)C(C)C(OC2OC(C)CC(N(C)C)C2O)C(CC=O)CC(C)C(=O)C=CC(C)=CC1COCSC (centres unmarked) [Example 20, 23-O-methylthiomethyl-4'-deoxy mycaminosyl tylonolide] |  | 0.78 (≈ 1.22 µM) |  | 3.12 (≈ 4.86 µM) | 1.56 (≈ 2.43 µM) | 0.78 (≈ 1.22 µM) | 0.78 (≈ 1.22 µM) | < 0.2 |  |  | 6.25 (≈ 9.74 µM) | < 0.2 | 
7 | CCC1OC(=O)CC(O)C(C)C(OC2OC(C)CC(N(C)C)C2O)C(CC=O)CC(C)C(=O)C=CC(C)=CC1CCl (centres unmarked) [Example 21, 23-chloro-23,4'-dideoxy mycaminosyl tylonolide] |  | 0.39 (≈ 0.65 µM) |  | 6.25 (≈ 10.4 µM) | 1.56 (≈ 2.6 µM) | 6.25 (≈ 10.4 µM) | 0.39 (≈ 0.65 µM) | 0.2 (≈ 0.333 µM) |  |  | 6.25 (≈ 10.4 µM) | 0.78 (≈ 1.3 µM) | 
8 | CCC1OC(=O)CC(O)C(C)C(OC2OC(C)CC(N(C)C)C2O)C(CC=O)CC(C)C(=O)C=CC(C)=CC1CSc1ccccn1 (centres unmarked) [Example 27, 23,4'-dideoxy-23-(pyridine-2-ylthio) mycaminosyl tylonolide] | 12.5 (≈ 18.5 µM) | 0.2 (≈ 0.296 µM) |  | 0.78 (≈ 1.16 µM) | 1.56 (≈ 2.31 µM) | 0.39 (≈ 0.578 µM) | 0.78 (≈ 1.16 µM) | < 0.2 |  |  |  | < 0.2 | 
9 | CC[C@H]1OC(=O)C[C@@H](O)[C@H](C)[C@@H](O[C@@H]2O[C@H](C)[C@@H](O[C@H]3C[C@@](C)(O)[C@@H](O)[C@H](C)O3)[C@H](N(C)C)[C@H]2O)[C@@H](CC=O)C[C@@H](C)C(=O)/C=C/C(C)=C/[C@@H]1CO[C@@H]1O[C@H](C)[C@@H](O)[C@@H](OC)[C@H]1OC [Tylosin] | 100 (≈ 109 µM) | 12.5 (≈ 13.6 µM) | 0.39 (≈ 0.426 µM) | 6.25 (≈ 6.82 µM) | 25 (≈ 27.3 µM) | 3.12 (≈ 3.41 µM) | 25 (≈ 27.3 µM) |  |  |  |  |  | 
